Reference: patent publication US11912679B2, “Aryl alkynamide derivatives” (Astellas Pharma, Inc., priority 2022, dated 2024)

Columns and labels:
IRF pathway of THP-1 = assay: Test on the activity of IRF pathway of THP-1 (THP1-Dual reporter cells stimulated with 2'3'-cGAMP); type: cell-based; conditions: Homo sapiens, PMA-treated, 2'3'-cGAMP 5 ug/mL, QUANTI-Luc readout, read-out: IC50 of inhibition of the activity of IRF pathway
Experimental: 0.3 uM of PMA (phorbol myristate acetate, SIGMA, P1585) was added to THP1-Dual™ cells (NF-κB-SEAP IRF-Luc Reporter Monocytes, Invivogen, thpd-nfis), and the cells were cultured at 37° C. for 1 day in RPMI1640 with 10% Fetal Bovine Serum (FBS). A compound with a known concentration was added, and the cells were incubated at room temperature for 1 hour. Mammalian (non-canonical) CDN, cyclic [G(2′,5′)pA(3′,5′)p] (2′3′-cGAMP, Invivogen, tlrl-nacga23) was added to a final concentration of 5 ug/mL, and the cells were cultured at 37° C. On the following day, QUANTI-Luc™ (Secreted luciferase detection medium, Invivogen, rep-qlc) was added to the culture solution and the activity of IRF pathway was measured using a microplate reader. The inhibition ratio at each concentration was determined, where the activity of IRF pathway with no addition of the test compound or 2′3′-cGAMP was defined as 100% inhibition and the activity of IRF pathway with no addition of the test compound and with addition of 2′3′-cGAMP was defined as 0% inhibition. The IC50 value was calculated by sigmoid […] model non-linear regression analysis.

IFNβ production = assay: Test on IFNβ production in mice plasma (DMXAA-induced); type: in vivo; conditions: male C57BL/6J mice, 1 mg/kg oral, DMXAA 20 mg/kg i.p. after 1 hour, plasma 4 hours later
Experimental: Male C57BL/6J mice (8-12-weeks-old) were administered orally either vehicle or 1 mg/kg of test compounds. After 1 hour, 5,6-Dimethylxanthenone-4-acetic acid (DMXAA) (BLD Pharmatech Ltd, BD126695) was administered intraperitoneally at a dose of 20 mg/kg. Four hours later, the mice were euthanized, and the plasma was collected. Plasma concentration of IFNβ was measured by an enzyme-linked immunosorbent assay method using an AlphaLISA Mouse IFNβ Detection Kit (Parkin Elmer, AL586C), and the inhibition ratio to the vehicle administration group was calculated.

saliva production = assay: Test on drug-induced Sjogren's syndrome-like salivary dysfunction in mice; type: in vivo; conditions: female C57BL/6J mice, DMXAA 20 mg/kg s.c. four times weekly, test compound oral once a day for 8 days
Experimental: Female C57BL/6J mice (8-10-weeks-old) were injected subcutaneously with 20 mg/kg of DMXAA or its vehicle, 5% NaHCO3, four times at weekly intervals. From the day after the last DMXAA challenge, mice were orally administered the test compound or its vehicle once a day for 8 days. On the following day, saliva was collected from mice using a cotton swab under awake conditions, and saliva weight during 15 min was measured and evaluated as an indicator of salivary gland function.

| Structure (SMILES) | IC50 (IRF pathway of THP-1) [nM] | Inh (%): inhibition ratio of the production of IFNβ to the vehicle administration group (IFNβ production) [%] | saliva production (saliva weight during 15 min) (saliva production) |
| --- | --- | --- | --- |
| NC(=O)C1CCN(C(=O)C#Cc2ccc(-c3ccccc3)c(C(F)(F)F)c2)CC1 [Example 34, 1-{3-[2-(trifluoromethyl)[1,1′-biphenyl]-4-yl]prop-2-ynoyl}piperidine-4-carboxamide] | 230 | 90 | significantly improved saliva production |
| N=S1(=O)CCN(C(=O)C#Cc2ccc(-c3ccccc3)c(C(F)(F)F)c2)CC1 [Example 99, 1-imino-4-{3-[2-(trifluoromethyl)[1,1′-biphenyl]-4-yl]prop-2-ynoyl}-1λ^6-thiomorpholin-1-one] | 102 | 68 | significantly improved saliva production |
| CN(Cc1cc(C#CC(=O)N2C[C@@H](O)[C@@H](O)C2)ccc1-c1ccccc1C(F)(F)F)C1CC1 [Example 123] | 143 |  |  |
| CS(=O)(=O)NCc1cc(C#CC(=O)N2C[C@@H](O)[C@@H](O)C2)ccc1-c1ccccc1C(F)(F)F [Example 124] | 2000 |  |  |
| CC(C)Oc1cc(C#CC(=O)N2C[C@@H](O)[C@@H](O)C2)ccc1-c1ccccc1C(F)(F)F [Example 126] | 372 |  |  |
| CN[C@@H]1CCN(C(=O)C#Cc2ccc(-c3ccccn3)c(C(F)(F)F)c2)C1 [Example 127, 1-[(3R)-3-(methylamino)pyrrolidin-1-yl]-3-[4-(pyridin-2-yl)-3-(trifluoromethyl)phenyl]prop-2-yn-1-one] | 529 |  |  |
| C#CCOc1ccccc1-c1ccc(C#CC(=O)N2C[C@@H](O)[C@@H](O)C2)cc1C(F)(F)F [Example 129, 1-[(3R,4S)-3,4-dihydroxypyrrolidin-1-yl]-3-{2′-[(prop-2-yn-1-yl)oxy]-2-(trifluoromethyl)[1,1′-biphenyl]-4-yl}prop-2-yn-1-one] | 242 |  |  |
| O=C(C#Cc1ccc(-c2ccccc2C(F)(F)F)cc1)N1C[C@@H](O)[C@@H](O)C1 [Example 131, 1-[(3R,4S)-3,4-dihydroxypyrrolidin-1-yl]-3-[2′-(trifluoromethyl)[1,1′-biphenyl]-4-yl]prop-2-yn-1-one] | 578 |  |  |
| N=S1(=O)CCN(C(=O)C#Cc2cnc(-c3ccc(Cl)cc3C(F)(F)F)nc2)CC1 [Example 132] | 179 |  |  |
| O=C(C#Cc1ccc(-c2ccccc2C(F)(F)F)c(CO)c1)N1C[C@@H](O)[C@@H](O)C1 [Example 133, 1-[(3R,4S)-3,4-dihydroxypyrrolidin-1-yl]-3-[2-(hydroxymethyl)-2′-(trifluoromethyl)[1,1′-biphenyl]-4-yl]prop-2-yn-1-one] | 731 |  |  |

The next lines start with results.

| IC50 (IRF pathway of THP-1) [nM] | Structure (SMILES) | Inh (%): inhibition ratio of the production of IFNβ to the vehicle administration group (IFNβ production) [%] | saliva production (saliva weight during 15 min) (saliva production) |
| --- | --- | --- | --- |
| 136 | O=C(C#Cc1ccc(-c2ccccc2)c(C(F)(F)F)c1)N1C[C@@H](O)[C@@H](O)C1 [Example 33, 1-[(3R,4S)-3,4-dihydroxypyrrolidin-1-yl]-3-[2-(trifluoromethyl)[1,1′-biphenyl]-4-yl]prop-2-yn-1-one] | 92 | significantly improved saliva production |
| 466 | O=C(C#Cc1ccc(-c2ccccc2)c(C(F)(F)F)c1)NC[C@H](O)CO [Example 35, N-[(2S)-2,3-dihydroxypropyl]-3-[2-(trifluoromethyl)[1,1′-biphenyl]-4-yl]prop-2-ynamide] | 83 |  |
| 615 | O=C(C#Cc1ccc(-c2ccccc2)c(C(F)(F)F)c1)NC[C@@H](O)CO [Example 36, N-[(2R)-2,3-dihydroxypropyl]-3-[2-(trifluoromethyl)[1,1′-biphenyl]-4-yl]prop-2-ynamide] | 85 |  |
| 201 | O=C(C#Cc1ccc(-c2ccccc2)c(C(F)(F)F)c1)N1C[C@@H](O)[C@H](O)C1 [Example 43, 1-[(3R,4R)-3,4-dihydroxypyrrolidin-1-yl]-3-[2-(trifluoromethyl)[1,1′-biphenyl]-4-yl]prop-2-yn-1-one] | 87 |  |
| 174 | O=C(C#Cc1ccc(-c2ccccc2)c(C(F)(F)F)c1)N1C[C@H](O)[C@@H](O)C1 [Example 44, 1-[(3S,4S)-3,4-dihydroxypyrrolidin-1-yl]-3-[2-(trifluoromethyl)[1,1′-biphenyl]-4-yl]prop-2-yn-1-one] | 82 |  |
| 150 | O=C(C#Cc1ccc(-c2ccccc2)c(C(F)(F)F)c1)N1CC(CO)(CO)C1 [Example 46, 1-[3,3-bis(hydroxymethyl)azetidin-1-yl]-3-[2-(trifluoromethyl)[1,1′-biphenyl]-4-yl]prop-2-yn-1-one] | 69 |  |
| 322 | CS(=N)(=O)CCNC(=O)C#Cc1ccc(-c2ccccc2)c(C(F)(F)F)c1 (centres unmarked) [Example 125] |  |  |
| 427 | CS(=O)(=O)NCCCN(CCO)C(=O)C#Cc1ccc(-c2ccccc2)c(C(F)(F)F)c1 [Example 130, N-(2-hydroxyethyl)-N-{3-[(methanesulfonyl)amino]propyl}-3-[2-(trifluoromethyl)[1,1′-biphenyl]-4-yl]prop-2-ynamide] |  |  |
